Converted amounts (≈) assume the structure as drawn.
Columns and labels:
[1] = Thermal stability by TGA analysis; assay type: physicochemical
Protocol: The melting points of compounds (4), (5), and (7) were also determined and provide support for the assertion that compound (4) experiences intermolecular hydrogen bonding interactions. […] Dimerization improves thermal stability.

[2] = Solubility in CHCl3 by UV-vis absorbance calibration curve; assay type: physicochemical; details: room temperature, 50 mg/mL samples stirred overnight, 0.45 μm filtered, diluted 2000x, Beer-Lambert; for solubility: CHCl3, organic solvent or mixture, thermodynamic from solid
Protocol: FIG. 2 is a concentration vs absorption plot for determining the solubility of compounds (5) and (7) in CHCl3. A calibration curve was made for each compound by plotting absorbance values of known concentrations. (Dotted lines). In order to determine solubility, compounds (5) and (7) were made into solutions having 50 mg/mL concentration, allowed to stir overnight and then passed through a 0.45 μm syringe filter to remove any undissolved solids. The obtained solutions were then diluted by a factor of 2000 so that their absorbance was in the range of values used for the calibration curves. By using the Beer-Lambert law and the slope of the respective curves, it was determined that the solubility of both (5) and (7) was ˜50 mg/mL. This observation is confirmed by the apparent complete dissolution of 50 mg/mL samples of either (5) or (7) in CHCl3.
With the N annulated PDI derivatives (4), (5) and (7) in hand we set out to study their optical electronic and solubility characteristics. The N-annulated PDI materials bear an extra site for alkyl chain functionalization which was envisioned to modify the solubility and self-assembly characteristics of the materials with respect to the parent PDI compound (2). […] This assertion is supported by ^1H NMR evidence showing that the N—H proton becomes more deshielded upon increasing the solution concentration, typically observed for hydrogen bonding interactions (not shown). […] [54] Importantly, such high organic solvent solubility is achieved without the need for long branched alkyl chains attached to the imide N atoms, chains that are used for almost all reported multi-PDI based materials. Thus, one can envision a wide array of alkyl chains being installed to fine-tune molecular assembly in the solid state, following the so-called “side chain engineering” methodology.

In the case of `CCCCCCn1c2cc3c(=O)n(C(CC)CC)c(=O)c4ccc5c6c(-c7cc8c(=O)n(C(CC)CC)c(=O)c9cc%10c%11c(c7c7ccc%12c(=O)n(C(CC)CC)c(=O)c%13cc(c%11c7c%12%13)n%10CCCCCC)c89)cc7c(=O)n(C(CC)CC)c(=O)c8cc1c(c6c78)c2c5c43` [Compound 7, BAY-EP-N-Hex-CAG-PDI], the “thermally stable up to / decomposition temperature (TGA)” value [1] is reported as roughly 425 °C, the solubility [2] is reported as greater than 50 mg/mL and the “solubility in CHCl3” value [2] is reported as roughly 50 mg/mL (≈ 39.9 mM).

`CCC(CC)n1c(=O)c2ccc3c4ccc5c(=O)n(C(CC)CC)c(=O)c6cc7[nH]c8cc(c1=O)c2c3c8c7c4c56` [Compound 4, EP-NH-CAG-PDI] gave a melting point of 235 °C and a solubility [2] of less than 1 mg/mL.

For `CCCCCCn1c2cc3c(=O)n(C(CC)CC)c(=O)c4ccc5c6ccc7c(=O)n(C(CC)CC)c(=O)c8cc1c(c6c78)c2c5c43` [Compound 5, EP-N-Hex-CAG-PDI], the solubility [2] was greater than 50 mg/mL and the “solubility in CHCl3” value [2] was roughly 50 mg/mL (≈ 79.6 mM).

From US9865819B2, “Nitrogen annulated perylene diimides for use as electron transport materials in organic electronic devices” (UTI Limited Partnership, priority 2016, dated 2018)
